# Patent publication US8008354B2, “Death receptor sensitizing compounds and methods of use therefor” (Burnham Institute for Medical Research, priority 2006, dated 2011)
# What was measured:
# [1] = system: PPC-1, OVCAR-3, T47D, MDA-MB-468 and DU 145 cells; test: MTS viability with CH-11 after FLIP siRNA transfection; format: cell-based; conditions: PPC-1 cells transfected with FLIP siRNA 10 nM
# Method: FIG. 8. Decreases in FLIP by compound 5809354 are functionally important. (A) PPC-1, OVCAR-3, T47D, and DU 145 cells (2×10^5) were seeded into 35 mm plates and transfected with double-stranded siRNA targeting FLIP (f), control ds RNA (c), or mock transfected with buffer alone (m). At 24 hours after transfection, cells were treated with CH-11 (100 ng/mL) or buffer control. Cell viability was measured by an MTS assay and expressed as a percentage of untreated control cells (mean+SD; n=3). (B) Levels of FLIP protein were measured by immunoblotting. (C) PPC-1 cells (2×10^5) were seeded into 35 mm plates and transfected with siRNAs (10 nM) targeting FLIP or luciferase as a control (CNTRL). At 24 hours after transfection, cells were treated with increasing concentrations of 5809354 with or without CH-11 anti-FAS antibody (100 ng/mL) for an additional 24 hours. Cell viability was measured by an MTS assay, and expressed as a percentage of control untreated cells (mean+SD; n=3).
# Transfection of siRNA oligonucleotides. […]
# To test the functional importance of decreases in FLIP by 5809354, it was determined whether knocking down FLIP could recapitulate the activity of the molecule and abrogate 5809354's ability to sensitize cells to CH-11. […]
# caspase 8 = test: Caspase activation in PPC-1 cells (FITC-labeled peptides, caspase 8 immunoblot); format: cell-based, human; conditions: 60 μM
# Method: (§1) FIG. 15. 5809354 sensitizes cells to anoikis through a caspase 8 dependent mechanism. (A) PPC-1 cells (5×10^4) were cultured under suspension conditions overnight and then treated with 5809354 in the presence or absence of the pan-caspase inhibitor z-VAD-fink (100 μM). Thirty hours after incubation, anoikis was determined by flow cytometry to detect cell surface annexin V expression and PI uptake. Data represents the mean±SEM percent of viable cells or colonies compared to untreated controls. (B) PPC-1 cells (5×10^4) were cultured in suspension conditions overnight and then treated with 5809354 (60 μM). At increasing times after treatment, caspase activation was detected with FITC-labeled peptides that bind preferentially and irreversibly to caspase 3/7, 8, or 9. Caspase activation was monitored by flow cytometry to quantify the percentage of fluorescently labeled cells. […] At increasing times after incubation, total cellular protein was isolated and analyzed by SDS-PAGE immunoblotting using anti-caspase 8 and anti-actin antibodies. * indicates cleaved caspase 8. […] Thirty hours after incubation, apoptosis was measured by cell surface annexin V expression and PI uptake. […] Ten hours after incubation, cell viability was measured using the MTS assay. […] EGFP expression and nuclear morphology were analyzed by fluorescence microscopy. […]
# [2] = system: E1A-transformed wild-type (WT) and caspase 8-/- MEFs; test: MTS viability of wild-type and caspase 8-/- MEFs in suspension conditions; format: cell-based; conditions: ten hours
# Method: as §1
substance,measurement,setting,value
4-(4-chloro-2-methylphenoxy)-N-hydroxybutanamide [compound 5809354],enhancement of CH-11-mediated killing in the presence of FLIP siRNA,[1],the longer enhanced CH-11-mediated killing
same,sequence of caspase activation,caspase 8; suspension conditions,Active caspase 8 was detected prior to activation of caspases 3/7 and 9
same,caspase 8 activation by immunoblot,caspase 8; suspension versus adherent conditions,preferentially activated caspase 8 in cells cultured under suspension but not adherent conditions
same,anoikis of caspase 8-deficient MEFs compared to wild-type,[2],resistant
